Tumor response data for three molecules are collected here from ChEMBL document CHEMBL1124854, “Porphyrin dimers as photosensitizers in photodynamic therapy” (1990).

Holding throughout (assay type): functional
Test [1] has as its system Mus musculus. In words: In vivo photosensitizing activity against subcutaneously implanted SMT-F tumor in DBA/2 mice at the dose of 4.2mg/Kg, day 1-2.
In test [2] the test system is Mus musculus. In words: In vivo photosensitizing activity against subcutaneously implanted SMT-F tumor in DBA/2 mice at the dose of 2.1mg/Kg, day 7.
The test system of test [3] is Mus musculus. Description: In vivo photosensitizing activity against subcutaneously implanted SMT-F tumor in DBA/2 mice at the dose of 2.1mg/Kg, day 1-2.

The structures appear in SMILES notation.

For `CNc1cc2[nH]c(cc3nc(cc4nc(ccc(CCC(=O)OC)c1C)C(CCC(=O)OC)=C4C)C(C)=C3C(C)O)c(C)c2C(C)OC(C)c1c(C)cc2[nH]c(cc3nc(cc4nc(cc(N)c1C)C(C(C)O)=C4C)C(C)=C3CCC(=O)OC)c(CCC(=O)OC)c2C` (centres undefined), the Tumor response in the test with Mus musculus [1] is 0%. Take `C=CC1=C(C)c2cc3nc(ccc(CCC(=O)OC)c(C)c(NC)cc4[nH]c(cc1n2)c(C)c4C(C)OC(C)c1c(C)cc2[nH]c(cc4nc(cc5nc(cc(N)c1C)C(C(C)O)=C5C)C(C)=C4CCC(=O)OC)c(CCC(=O)OC)c2C)C(CCC(=O)OC)=C3C` (centres undefined): the Tumor response in the test on Mus musculus [2] and with Mus musculus [3] was 100% throughout.

As for `CNc1cc2[nH]c(cc3nc(cc4nc(ccc(CCC(=O)OC)c1C)C(CCC(=O)OC)=C4C)C(C)=C3C(C)O)c(C)c2C(C)OC(=O)CCC1=C(C)c2cc(C)c(C(C)O)c(C)c(N)cc3nc(cc4[nH]c(cc1n2)c(CCC(=O)OC)c4C)C(C)=C3C(C)O` (centres undefined), the Tumor response in the test on Mus musculus [1] is 0%.
